Measured values published in patent US9145392B2, “Imidazole amines as modulators of kinase activity” (Merck Patent GmbH, priority 2011, dated 2015).

Columns and labels:
P70S6K (T412E mutant) = P70S6K (T412E mutant) (Homo sapiens (Human), UniProt P23443, T412E); assay: P70S6K enzyme assay; type: biochemical; details: read-out: IC50 p70S6K
Summary of the method: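 Read-out is the substrate/phosphopeptide ratio from mobility-shift electrophoresis on a LabChip 3000.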

His-AKT (Full Length) = His-AKT (Full Length) (Homo sapiens (Human), UniProt P31749); assay: AKT enzyme assay; type: biochemical; details: read-out: IC50 AKT
Chain of His-AKT (Full Length) (P31749 whole entry): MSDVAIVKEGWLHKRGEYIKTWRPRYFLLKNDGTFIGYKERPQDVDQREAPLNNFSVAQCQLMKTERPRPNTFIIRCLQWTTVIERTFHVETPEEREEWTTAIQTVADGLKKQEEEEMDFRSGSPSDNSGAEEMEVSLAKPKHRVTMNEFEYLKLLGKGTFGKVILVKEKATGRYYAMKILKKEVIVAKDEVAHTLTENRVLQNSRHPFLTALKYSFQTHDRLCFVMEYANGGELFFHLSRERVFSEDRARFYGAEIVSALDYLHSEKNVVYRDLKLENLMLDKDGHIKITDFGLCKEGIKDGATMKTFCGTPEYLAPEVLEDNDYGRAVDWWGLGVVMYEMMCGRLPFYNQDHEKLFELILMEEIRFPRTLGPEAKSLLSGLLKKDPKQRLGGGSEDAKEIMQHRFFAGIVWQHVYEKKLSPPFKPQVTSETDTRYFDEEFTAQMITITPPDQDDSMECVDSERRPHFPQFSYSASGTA

Chain of P70S6K (T412E mutant) (P23443 whole entry T412E): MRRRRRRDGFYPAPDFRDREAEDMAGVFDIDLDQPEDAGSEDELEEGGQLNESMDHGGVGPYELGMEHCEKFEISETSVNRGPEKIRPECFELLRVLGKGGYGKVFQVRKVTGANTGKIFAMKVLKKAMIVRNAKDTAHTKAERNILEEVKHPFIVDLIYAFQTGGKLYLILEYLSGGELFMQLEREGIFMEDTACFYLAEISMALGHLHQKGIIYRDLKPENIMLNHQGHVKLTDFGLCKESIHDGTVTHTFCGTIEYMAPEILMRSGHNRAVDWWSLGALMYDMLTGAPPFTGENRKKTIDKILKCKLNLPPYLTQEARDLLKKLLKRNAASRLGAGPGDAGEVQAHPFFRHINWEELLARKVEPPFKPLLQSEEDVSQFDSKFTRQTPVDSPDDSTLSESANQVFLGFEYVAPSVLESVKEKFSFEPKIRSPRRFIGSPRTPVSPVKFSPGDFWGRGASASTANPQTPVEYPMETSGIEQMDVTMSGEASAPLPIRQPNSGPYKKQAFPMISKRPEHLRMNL

| IC50 (P70S6K (T412E mutant)) [nM] | IC50 (His-AKT (Full Length)) [nM] | Compound |
| --- | --- | --- |
| 1.1 | 8.2 | CCc1c(N)ncnc1N1CCC(c2nc(-c3ccc(F)c(F)c3)cn2CCN2CCCC2)CC1 [Compound 233] |
| 13 | 470 | CCc1c(N)ncnc1N1CCC(c2nc(-c3ccc(C(F)(F)F)c(F)c3)cn2CCN2CCCC2)CC1 [Compound 234] |
| 10 | 1000 | Nc1ncnc(N2CCC(c3nc(-c4ccc(C(F)(F)F)c(F)c4)cn3CCN3CCCC3)CC2)c1Cl [Compound 235] |
| 0.5 | 8.1 | Nc1ncnc(N2CCC(c3nc(-c4cccc(F)c4)cn3CCN3CCCC3)CC2)c1Cl [Compound 236] |
| 0.8 | 3.3 | Nc1ncnc(N2CCC(c3nc(-c4ccc(F)cc4)cn3CCN3CCCC3)CC2)c1Cl [Compound 237] |
| 0.9 | 3.2 | Nc1ncnc(N2CCC(c3nc(-c4ccc(F)c(F)c4)cn3CCN3CCCC3)CC2)c1Cl [Compound 238] |
| 4.4 | 210 | C=Cc1c(N)ncnc1N1CCC(c2nc(-c3ccc(C(F)(F)F)c(F)c3)cn2CCN2CCCC2)CC1 [Compound 239] |
| 0.9 | 21 | C=Cc1c(N)ncnc1N1CCC(c2nc(-c3cccc(F)c3)cn2CCN2CCCC2)CC1 [Compound 240] |
| 2.9 | 16 | C=Cc1c(N)ncnc1N1CCC(c2nc(-c3ccc(F)cc3)cn2CCN2CCCC2)CC1 [Compound 241] |
| 1.4 | 9.7 | C=Cc1c(N)ncnc1N1CCC(c2nc(-c3ccc(F)c(F)c3)cn2CCN2CCCC2)CC1 [Compound 242] |
| 18 | 63 | Nc1cc(N2CCC(c3nc(-c4ccc(F)c(F)c4)cn3CCN3CCCC3)CC2)ncn1 [Compound 243] |
| 25 | 210 | Nc1cc(N2CCC(c3nc(-c4cccc(F)c4)cn3CCN3CCCC3)CC2)ncn1 [Compound 244] |
| 5.3 | 64 | CCc1c(N)ncnc1N1CCC(c2nc(-c3ccc(C(F)(F)F)c(F)c3)cn2CCN2CC[C@H](F)C2)CC1 [Compound 245] |
| 1.7 | 25 | CCc1c(N)ncnc1N1CCC(c2nc(-c3ccc(C(F)(F)F)c(F)c3)cn2CCN2CC[C@@H](F)C2)CC1 [Compound 246] |
| 5.5 | 520 | CCc1c(N)ncnc1N1CCC(c2nc(-c3ccc(C(F)(F)F)c(F)c3)cn2CCN2CCC(F)(F)CC2)CC1 [Compound 247] |
| 16 | 1000 | CCc1c(N)ncnc1N1CCC(c2nc(-c3ccc(C(F)(F)F)c(F)c3)cn2CCN2CCCC(F)(F)C2)CC1 [Compound 248] |
| 10 | 86 | CCc1c(N)ncnc1N1CCC(c2nc(-c3ccc(C(F)(F)F)c(F)c3)cn2CCN2CCC(F)CC2)CC1 [Compound 249] |
| 5.7 | 210 | CCc1c(N)ncnc1N1CCC(c2nc(-c3ccc(C(F)(F)F)c(F)c3)cn2CCN2CCCC(F)C2)CC1 (centres unmarked) [Compound 250] |
| 2.6 | 76 | CCc1c(N)ncnc1N1CCC(c2nc(-c3ccc(Cl)c(F)c3)cn2CCN2CCCC2)CC1 [Compound 251] |
| 0.2 | 0.4 | CCc1c(N)ncnc1N1CCC(c2nc(-c3ccc(F)c(Cl)c3)cn2CCN2CCCC2)CC1 [Compound 252] |
| 19 | 28 | Nc1ncnc(N2CCC(c3nc(-c4ccc(C(F)(F)F)c(F)c4)cn3CCN3CCCCC3)CC2)c1C1CCC1 [Compound 253] |

| IC50 (P70S6K (T412E mutant)) [nM] | IC50 (His-AKT (Full Length)) [nM] | Compound |
| --- | --- | --- |
| 8.1 | 9.1 | Nc1ncnc(N2CCC(c3nc(-c4ccc(C(F)(F)F)c(F)c4)cn3CCN3CCCC3)CC2)c1C1CCC1 [Compound 254] |
| 6.9 | 9.4 | Nc1ncnc(N2CCC(c3nc(-c4ccc(F)c(F)c4)cn3CCN3CCCC3)CC2)c1C1CCC1 [Compound 255] |
| 6.5 | 11 | Nc1ncnc(N2CCC(c3nc(-c4ccc(F)cc4)cn3CCN3CCCC3)CC2)c1C1CCC1 [Compound 256] |
| 4 | 20 | Nc1ncnc(N2CCC(c3nc(-c4cccc(F)c4)cn3CCN3CCCC3)CC2)c1C1CCC1 [Compound 257] |
| 36 | 380 | Nc1ncnc(N2CCC(c3nc(-c4ccc(C(F)(F)F)c(F)c4)cn3CCN3CCCC3)CC2)c1C1CCC1 [Compound 258] |
| 37 | 430 | Nc1ncnc(N2CCC(c3nc(-c4ccc(C(F)(F)F)cc4)cn3CCN3CCCC3)CC2)c1C1CCC1 [Compound 259] |
| 21 | 67 | Nc1ncnc(N2CCC(c3nc(-c4ccc(Cl)c(F)c4)cn3CCN3CCCC3)CC2)c1C1CCC1 [Compound 260] |
| 6.3 | 8.1 | Nc1ncnc(N2CCC(c3nc(-c4cccc(C(F)(F)F)c4)cn3CCN3CCCC3)CC2)c1C1CCC1 [Compound 261] |
| 4 | 4.9 | Nc1ncnc(N2CCC(c3nc(-c4ccc(F)c(Cl)c4)cn3CCN3CCCC3)CC2)c1C1CCC1 [Compound 262] |
| 25 | 79 | Nc1ncnc(N2CCC(c3nc(-c4ccc(Cl)cc4)cn3CCN3CCCC3)CC2)c1C1CCC1 [Compound 263] |
| 4.1 | 6.2 | Nc1ncnc(N2CCC(c3nc(-c4cccc(Cl)c4)cn3CCN3CCCC3)CC2)c1C1CCC1 [Compound 264] |
| 6.2 | 110 | Nc1ncnc(N2CCC(c3nc(-c4ccc(C(F)(F)F)cc4)cn3CCN3CCCC3)CC2)c1Br [Compound 265] |
| 3.3 | 16 | Nc1ncnc(N2CCC(c3nc(-c4ccc(Cl)c(F)c4)cn3CCN3CCCC3)CC2)c1Br [Compound 266] |
| 2.2 | 4.2 | Nc1ncnc(N2CCC(c3nc(-c4cccc(C(F)(F)F)c4)cn3CCN3CCCC3)CC2)c1Br [Compound 267] |
| 1.4 | 1.8 | Nc1ncnc(N2CCC(c3nc(-c4ccc(F)c(Cl)c4)cn3CCN3CCCC3)CC2)c1Br [Compound 268] |
| 10 | 190 | C=Cc1c(N)ncnc1N1CCC(c2nc(-c3ccc(C(F)(F)F)cc3)cn2CCN2CCCC2)CC1 [Compound 269] |
| 360 | 1000 | Nc1cc(N2CCC(c3nc(-c4ccc(C(F)(F)F)cc4)cn3CCN3CCCC3)CC2)ncn1 [Compound 270] |
| 12 | 180 | CCc1c(N)ncnc1N1CCC(c2nc(-c3ccc(C(F)(F)F)cc3)cn2CCN2CCCC2)CC1 [Compound 271] |
| 3.5 | 9.6 | CCc1c(N)ncnc1N1CCC(c2nc(-c3cccc(C(F)(F)F)c3)cn2CCN2CCCC2)CC1 [Compound 272] |
| 7.4 | 190 | CCc1c(N)ncnc1N1CCC(c2nc(-c3ccc(Cl)cc3)cn2CCN2CCCC2)CC1 [Compound 273] |
| 1.5 | 12 | CCc1c(N)ncnc1N1CCC(c2nc(-c3cccc(Cl)c3)cn2CCN2CCCC2)CC1 [Compound 274] |

| IC50 (P70S6K (T412E mutant)) [nM] | IC50 (His-AKT (Full Length)) [nM] | Compound |
| --- | --- | --- |
| 2.8 | 430 | CCc1c(N)ncnc1N1CCC(c2nc(-c3ccc(F)c(C(F)(F)F)c3)cn2CCN2CCC(F)(F)C2)CC1 [Compound 275] |
| 2.8 | 9.3 | CCc1c(N)ncnc1N1CCC(c2nc(-c3ccc(F)c(C(F)(F)F)c3)cn2CCN2CCCCC2)CC1 [Compound 276] |
| 3.2 | 18 | CCc1c(N)ncnc1N1CCC(c2nc(-c3cccc(C(F)(F)F)c3)cn2CCN2CCC2)CC1 [Compound 277] |
| 4.6 | 79.5 | CCc1c(N)ncnc1N1CCC(c2nc(-c3cccc(F)c3)cn2CCN2CCC2)CC1 [Compound 278] |
| 2.4 | 16 | CCc1c(N)ncnc1N1CCC(c2nc(-c3cccc(Cl)c3)cn2CCN2CCC2)CC1 [Compound 279] |
| 6 | 7.3 | Nc1ncnc(N2CCC(c3nc(-c4ccc(C(F)(F)F)c(F)c4)cn3CCN3CCC3)CC2)c1C1CCC1 [Compound 280] |
| 3.9 | 9.2 | CCc1c(N)ncnc1N1CCC(c2nc(-c3ccc(F)c(Cl)c3)cn2CCN2CCC2)CC1 [Compound 281] |
| 3.8 | 24 | CCc1c(N)ncnc1N1CCC(c2nc(-c3ccc(F)c(F)c3)cn2CCN2CCC2)CC1 [Compound 282] |
| 1.4 | 2.7 | Nc1ncnc(N2CCC(c3nc(-c4ccc(F)c(C(F)(F)F)c4)cn3CCN3CCC3)CC2)c1[N+](=O)[O-] [Compound 283] |
| 10.6 | 51.5 | Nc1ncnc(N2CCC(c3nc(-c4ccc(F)c(C(F)(F)F)c4)cn3CCN3CCC3)CC2)c1N [Compound 284] |
| 1 | 1.4 | Nc1ncnc(N2CCC(c3nc(-c4ccc(F)c(C(F)(F)F)c4)cn3CCN3CCC3)CC2)c1C=O [Compound 285] |
| 135 | 730 | Nc1ncnc(N2CCC(c3nc(-c4ccc(F)c(C(F)(F)F)c4)cn3CCN3CCCC3)CC2)c1C(=O)O [Compound 286] |
| 0.6 | 1 | Nc1ncnc(N2CCC(c3nc(-c4ccc(F)c(C(F)(F)F)c4)cn3CCN3CCCC3)CC2)c1C=O [Compound 287] |
| 21 | 190 | CC(=O)Nc1c(N)ncnc1N1CCC(c2nc(-c3ccc(F)c(C(F)(F)F)c3)cn2CCN2CCC2)CC1 [Compound 288] |
| 1.3 | 2 | CC(C)Oc1c(N)ncnc1N1CCC(c2nc(-c3ccc(F)c(Cl)c3)cn2CCN2CCCC2)CC1 [Compound 290] |
| 2.6 | 8 | CCOc1c(N)ncnc1N1CCC(c2nc(-c3ccc(F)c(C(F)(F)F)c3)cn2CCN(C)C)CC1 [Compound 291] |
| 3.4 | 7.6 | CC(C)Oc1c(N)ncnc1N1CCC(c2nc(-c3ccc(F)c(C(F)(F)F)c3)cn2CCN(C)C)CC1 [Compound 292] |
| 1 | 1.7 | CCOc1c(N)ncnc1N1CCC(c2nc(-c3ccc(F)c(C)c3)cn2CCN(C)C)CC1 [Compound 293] |
| 1.3 | 1.9 | Cc1cc(-c2cn(CCN(C)C)c(C3CCN(c4ncnc(N)c4OC(C)C)CC3)n2)ccc1F [Compound 294] |
